Source: patent US20070261453A1, “Plant Nutrient Based on O,P-Ethylene(Bis)Hydroxyphenyl Glycines” (priority 2004, published 2007)

System: Soybean (cv.Oshumi) plants
Assay: Soybean iron chlorosis experiment in aerated nutrient solution with Fe chelate treatments (plant weight, iron content, SPAD index)
Format: in vivo
Conditions: for Iron content in parts of the plants: leaf / Iron content in parts of the plants: per number of leaves / Iron content in parts of the plants: root: dry digestion and atomic absorption, sampled after 14 days; for Iron content in parts of the plants: leaf / Iron content in parts of the plants: per number of leaves / Iron content in parts of the plants: root / Dry leaf weight / Dry root weight / Fresh leaf weight / Fresh plant weight / Fresh root weight: mean of 4 replicates; for Dry leaf weight / Dry root weight / Fresh leaf weight / Fresh plant weight / Fresh root weight: iron-chlorotic soybean plants, sampled 14 days after start of Fe treatment; for Spad index (second leaf): Minolta SPAD 502, means of 4 replicates
Protocol: Soybean (cv.Oshumi) plants have been used in the biological experiment. Plants were obtained from soybean seeds that were germinated in standard seed growing procedure in closed sterilized trays. The seeds were placed in the trays on a cellulose paper soaked with 50 milliliters of distilled water and with another paper placed over them. 30 ml distilled water and 20 ml CaSO4 1 mM were added. The trays were placed in a thermostatized stove, without light, at […] for 3 days. After this time the seedlings of similar development were placed on a holed plate floating over containers full of diluted nutrient solution and EDTA for 7 days. Nutrient solutions (without iron) were a mixture of: macronutrients: 1 mM Ca(NO3)2·4H2O, 0.9 mM KNO3, 0.3 mM MgSO4, 0.1 mM KH2PO4; cationic micronutrients: 2.5 μM MnSO4, 1 μM CuSO4, 10 μM ZnSO4, 1 μM NiCl2, 1 μM CoSO4, 115.5 μM EDTANa2 (100 μM in excess to buffer micronutrients activities), 231 μM KOH; anionic micronutrients: 35 μM NaCl, 10 μM H3BO3, 0.05 μM Na2MoO4. The pH was buffered at 7.5 with 0.1 mM HEPES (N-2-Hydroxyethylpiperazine-N′-2-ethanesulfonic acid), 0.05mM KOH and 2 g of CaCO3 per pot. Later, plants were subjected to a stressing procedure that consisted in putting them in five pails that contained 10 | each one of nutrient solution without iron chelate. […] After 6 days, the stems of two plants were wrapped together with foam and placed in 2 | polyethylene vessels (3 holes per lid, 2 plants per pot). The pots were completely covered with black plastic to avoid the incidence of the light. The vessels contained 2 | of continuously aerated nutrient solution containing the Fe treatments. Nutrient solution consisted of macronutrients and anionic micronutrients as before and cationic micronutrients: MnSO4 (1 μM), CuSO4 (0.5 μM), ZnSO4 (0.5 μM), NiCl2 (0.1 μM) and CoSO4 (0.1 μM). Water was added every two days and the solution was renewed every week. Plants were sampled 14 days after. Roots and leaves were separated and washed first with Tween® 80 (polyoxyethylene sorbitan monooleate) in 0.1 M HCl for 30 seconds, and then with abundant distilled water, after that they were weighted and dried. Micronutrientes were determined in leaves and in roots after dry digestion procedure and atomic absorption. During the experiment SPAD readings were frequently taken using the Minolta SPAD 502 chlorophyll meter, for all the leaves.
Seven different treatments were applied: • Comparative Example 1: No iron added. • Comparative Example 2: Fe-o,o-EDDHA 5 μM • Comparative Example 3: Fe-o,o-EDDHA 5 μM+Fe-o,p-EDDHA 1 μM. • Comparative Example 4: Fe-o,o-EDDHA 5 μM+Fe-o,p-EDDHA 2.5 μM. • Comparative Example 5: Fe-o,o-EDDHA 10 μM • Example 1: Fe-o,p-EDDHA 5 μM. • Example 2: Fe-o,o-EDDHA 5 μM+Fe-o,p-EDDHA 5 μM.
Four replications were prepared for each treatment.

[1] = listed as Comparative Example 2

SMILES	Dry leaf weight [g]	Dry root weight [g]	Fresh leaf weight [g]	Fresh plant weight [g]	Fresh root weight [g]	Iron content in parts of the plants: leaf [μg Fe/g dry leave]	Iron content in parts of the plants: per number of leaves	Iron content in parts of the plants: root [μg Fe/g dry root]	Spad index (second leaf) (time 0 days)	Spad index (second leaf) (time 2 days)	Spad index (second leaf) (time 4 days)	Spad index (second leaf) (time 7 days)	Spad index (second leaf) (time 9 days)	Spad index (second leaf) (time 11 days)	other results
O=C([O-])C(NCCNC(C(=O)[O-])c1ccccc1[O-])c1ccccc1[O-].[Fe+3] (single isomer, unassigned) [Comp. Example 2, Fe-o,o-EDDHA]	0.321	0.282	1.257	6.781	3.818										Iron content in parts of the plants: leaf [1]: 62.30 μg Fe/g dry leave; Iron content in parts of the plants: per number of leaves [1]: 19.82 μg Fe/number of leaves; Iron content in parts of the plants: root [1]: 90.32 μg Fe/g dry root; Spad index (second leaf) (time 0 days, listed as C2): 12.7; Spad index (second leaf) (time 2 days, listed as C2): 10.1; Spad index (second leaf) (time 4 days, listed as C2): 9.1; Spad index (second leaf) (time 7 days, listed as C2): 9.5; Spad index (second leaf) (time 9 days, listed as C2): 9.2; Spad index (second leaf) (time 11 days, listed as C2): 8.2
O=C([O-])C(NCCNC(C(=O)[O-])c1ccccc1[O-])c1ccccc1[O-].[Fe+3] (single isomer, unassigned) [Comp. Example 5, Fe-o,o-EDDHA]	0.781	0.425	4.736	15.862	7.316	74.87	55.15 μg Fe/number of leaves	77.22	16.6	15.7	15.0	18.2	19.7	19.0	
O=C([O-])C(NCCNC(C(=O)[O-])c1ccccc1[O-])c1ccc(O)cc1.[Fe+3] (stereo not drawn) [Example 1, Fe-o,p-EDDHA]	1.136	0.595	6.282	21.186	8.933	80.98	91.91 μg Fe/number of leaves	128.48	14.7	14.0	18.0	21.4	13.9	24.9	Course of SPAD values compared with Comparative Examples (in words) (Example 1 vs Comparative Examples 1 to 3, Example 2 vs Comparative Examples 4 and 5): raise considerably steeper; Weight of the plants compared with Comparative Examples (in words) (Example 1 vs Comparative Examples 1 to 3, Example 2 vs Comparative Examples 4 and 5, Table 3): considerable raise of weight of the plants; Iron content in parts of the plants compared with Comparative Examples (in words) (Example 1 vs Comparative Examples 1 to 3, Example 2 vs Comparative Examples 4 and 5, Table 4): increase in the iron content
